Drawing on US8691865B2 (AbbVie Inc., priority 2008, dated 2014), this text covers IC50 for 21 compounds.

pIC50: −log10 of the molar value.

For the first assay, the target named is human Cav2.2 (Homo sapiens, UniProt Q00975). Put plainly: Assessment of calcium channel activity using FLIPR (Ca2+ influx in IMR32 cells). It is filed as cell-based.
Sequence of human Cav2.2 (Q00975 whole entry): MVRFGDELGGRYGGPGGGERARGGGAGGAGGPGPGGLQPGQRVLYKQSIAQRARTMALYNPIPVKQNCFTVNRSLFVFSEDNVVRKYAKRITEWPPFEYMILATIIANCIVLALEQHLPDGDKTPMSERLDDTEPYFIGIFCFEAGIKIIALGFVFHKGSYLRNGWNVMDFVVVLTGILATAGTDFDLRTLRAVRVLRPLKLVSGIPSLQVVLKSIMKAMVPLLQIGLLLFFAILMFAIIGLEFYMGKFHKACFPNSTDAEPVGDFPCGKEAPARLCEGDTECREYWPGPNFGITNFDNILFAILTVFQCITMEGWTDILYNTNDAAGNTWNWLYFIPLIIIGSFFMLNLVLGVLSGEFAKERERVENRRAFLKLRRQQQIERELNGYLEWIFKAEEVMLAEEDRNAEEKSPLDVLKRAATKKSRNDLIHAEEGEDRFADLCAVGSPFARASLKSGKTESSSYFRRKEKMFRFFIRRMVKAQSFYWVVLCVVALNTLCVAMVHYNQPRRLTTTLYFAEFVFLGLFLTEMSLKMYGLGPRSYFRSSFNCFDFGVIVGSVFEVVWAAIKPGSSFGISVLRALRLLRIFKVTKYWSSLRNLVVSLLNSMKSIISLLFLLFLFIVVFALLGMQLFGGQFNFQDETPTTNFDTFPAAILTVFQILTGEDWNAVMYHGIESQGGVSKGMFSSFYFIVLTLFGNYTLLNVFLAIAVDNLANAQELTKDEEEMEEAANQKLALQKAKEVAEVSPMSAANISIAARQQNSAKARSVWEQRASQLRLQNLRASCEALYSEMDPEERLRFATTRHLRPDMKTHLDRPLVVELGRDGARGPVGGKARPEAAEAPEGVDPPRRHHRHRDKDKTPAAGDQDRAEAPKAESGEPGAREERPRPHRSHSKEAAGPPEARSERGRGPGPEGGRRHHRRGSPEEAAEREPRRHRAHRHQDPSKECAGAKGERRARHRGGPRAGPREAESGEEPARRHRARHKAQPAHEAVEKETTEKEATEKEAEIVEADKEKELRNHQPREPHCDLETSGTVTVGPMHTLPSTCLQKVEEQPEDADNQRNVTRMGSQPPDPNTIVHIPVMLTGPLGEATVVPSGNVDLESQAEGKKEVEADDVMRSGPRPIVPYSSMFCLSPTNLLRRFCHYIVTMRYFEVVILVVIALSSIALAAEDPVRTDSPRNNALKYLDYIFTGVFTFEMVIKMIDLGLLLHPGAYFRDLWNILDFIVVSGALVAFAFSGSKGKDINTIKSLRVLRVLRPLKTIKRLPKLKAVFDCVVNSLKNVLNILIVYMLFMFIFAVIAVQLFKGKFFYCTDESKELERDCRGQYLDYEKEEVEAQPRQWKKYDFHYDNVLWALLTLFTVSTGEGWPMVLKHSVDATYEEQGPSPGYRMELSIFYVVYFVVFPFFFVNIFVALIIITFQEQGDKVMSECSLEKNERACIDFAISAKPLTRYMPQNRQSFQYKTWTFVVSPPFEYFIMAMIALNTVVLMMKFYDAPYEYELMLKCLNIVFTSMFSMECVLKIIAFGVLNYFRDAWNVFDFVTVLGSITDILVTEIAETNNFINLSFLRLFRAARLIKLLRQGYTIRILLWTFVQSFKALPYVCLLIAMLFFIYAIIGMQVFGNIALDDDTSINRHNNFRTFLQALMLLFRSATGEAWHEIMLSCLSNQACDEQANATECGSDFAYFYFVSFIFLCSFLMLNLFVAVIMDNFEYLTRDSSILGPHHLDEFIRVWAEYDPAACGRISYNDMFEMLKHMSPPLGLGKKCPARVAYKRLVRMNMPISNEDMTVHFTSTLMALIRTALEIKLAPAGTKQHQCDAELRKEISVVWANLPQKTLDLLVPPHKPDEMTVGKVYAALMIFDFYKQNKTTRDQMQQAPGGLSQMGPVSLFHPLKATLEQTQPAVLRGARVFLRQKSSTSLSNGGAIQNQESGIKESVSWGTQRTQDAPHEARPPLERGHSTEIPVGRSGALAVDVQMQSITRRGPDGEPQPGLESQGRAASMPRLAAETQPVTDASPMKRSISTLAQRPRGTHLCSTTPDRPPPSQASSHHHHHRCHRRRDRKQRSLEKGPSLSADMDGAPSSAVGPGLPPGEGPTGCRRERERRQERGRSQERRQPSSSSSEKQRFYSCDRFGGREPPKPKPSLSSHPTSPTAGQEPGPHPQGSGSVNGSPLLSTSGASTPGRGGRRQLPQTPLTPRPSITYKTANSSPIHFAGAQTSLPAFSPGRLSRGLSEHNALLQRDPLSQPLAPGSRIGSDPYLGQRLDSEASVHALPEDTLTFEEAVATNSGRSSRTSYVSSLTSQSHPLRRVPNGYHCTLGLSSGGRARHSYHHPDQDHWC
Sequence of human Cav2.2 (P54289 25-956 partner limits assumed): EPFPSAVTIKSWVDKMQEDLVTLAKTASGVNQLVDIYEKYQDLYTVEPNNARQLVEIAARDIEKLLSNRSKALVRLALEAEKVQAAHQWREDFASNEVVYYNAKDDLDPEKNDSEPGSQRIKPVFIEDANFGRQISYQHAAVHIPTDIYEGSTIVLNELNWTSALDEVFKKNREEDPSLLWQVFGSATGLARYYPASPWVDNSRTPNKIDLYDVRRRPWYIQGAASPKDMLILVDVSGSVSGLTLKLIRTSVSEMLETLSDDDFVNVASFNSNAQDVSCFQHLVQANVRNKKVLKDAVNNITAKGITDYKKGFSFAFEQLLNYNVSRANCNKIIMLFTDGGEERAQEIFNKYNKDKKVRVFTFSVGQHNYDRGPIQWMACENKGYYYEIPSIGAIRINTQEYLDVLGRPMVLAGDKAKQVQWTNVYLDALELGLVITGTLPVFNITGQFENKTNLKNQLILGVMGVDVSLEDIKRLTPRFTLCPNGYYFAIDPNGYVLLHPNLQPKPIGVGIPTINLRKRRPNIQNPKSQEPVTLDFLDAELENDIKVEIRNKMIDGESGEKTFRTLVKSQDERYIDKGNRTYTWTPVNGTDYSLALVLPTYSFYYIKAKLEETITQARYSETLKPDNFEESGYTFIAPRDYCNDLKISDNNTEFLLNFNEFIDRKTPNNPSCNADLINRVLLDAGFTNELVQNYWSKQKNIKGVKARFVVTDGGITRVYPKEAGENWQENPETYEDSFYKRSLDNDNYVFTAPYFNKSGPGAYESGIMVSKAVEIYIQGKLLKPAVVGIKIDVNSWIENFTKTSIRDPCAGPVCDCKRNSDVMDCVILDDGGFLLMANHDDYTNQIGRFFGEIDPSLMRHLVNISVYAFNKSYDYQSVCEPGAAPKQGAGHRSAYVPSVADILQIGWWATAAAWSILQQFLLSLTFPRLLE
Sequence of human Cav2.2 (P54289 957-1103 partner limits assumed): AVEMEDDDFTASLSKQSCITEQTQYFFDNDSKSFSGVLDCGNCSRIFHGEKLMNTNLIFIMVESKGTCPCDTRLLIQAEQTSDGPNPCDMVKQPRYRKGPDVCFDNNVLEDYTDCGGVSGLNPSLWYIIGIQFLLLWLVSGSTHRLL
Sequence of human Cav2.2 (P54284 whole entry partner): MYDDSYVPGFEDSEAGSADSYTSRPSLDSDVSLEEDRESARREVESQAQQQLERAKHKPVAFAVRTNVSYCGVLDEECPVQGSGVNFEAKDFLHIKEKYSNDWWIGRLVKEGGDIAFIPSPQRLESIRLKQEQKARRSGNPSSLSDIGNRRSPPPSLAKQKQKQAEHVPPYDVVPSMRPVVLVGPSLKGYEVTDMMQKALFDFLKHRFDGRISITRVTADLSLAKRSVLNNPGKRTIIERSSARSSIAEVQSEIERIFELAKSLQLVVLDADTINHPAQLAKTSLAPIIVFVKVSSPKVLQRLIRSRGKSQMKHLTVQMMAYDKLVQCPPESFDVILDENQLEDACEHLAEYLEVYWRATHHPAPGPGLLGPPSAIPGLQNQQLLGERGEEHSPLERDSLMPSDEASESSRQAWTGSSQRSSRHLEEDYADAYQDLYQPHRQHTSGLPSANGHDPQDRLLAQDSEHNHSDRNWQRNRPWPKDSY
Conditions: not given
The method, boiled down: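 Human neuroblastoma IMR32 cells were seeded at 1−1.2×10^5 cells/well and cultured 48 h at 37 °C before FLIPR calcium influx measurement. Percent inhibition at each concentration was calculated against the no-inhibitor signal, and IC50 came from sigmoidal dose-response fits.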
For orientation: pIC50 means −log10 of the IC50, conventionally taken in molar units. As to `O=C(N[C@H]1CC[C@H]2CN(Cc3cccc(C(F)(F)F)c3)C[C@H]21)C(O)(C1CCCCC1)C1CCCCC1` [Example 152, 2,2-dicyclohexyl-2-hydroxy-N-{(3aS,4S,6aR)-2-[3-(trifluoromethyl)benzyl]octahydrocyclopenta[c]pyrrol-4-yl}acetamide], the pIC50 is 6.29.
The same measure, in the same setting: to `O=C(N[C@H]1CC[C@@H]2CN(Cc3cccc(C(F)(F)F)c3)C[C@@H]21)C(C1CCCCC1)C1CCCCC1` [Example 156, 2,2-dicyclohexyl-N-{(3aR,4S,6aS)-2-[3-(trifluoromethyl)benzyl]octahydrocyclopenta[c]pyrrol-4-yl}acetamide] belongs 6.12.

The assay is the same for the next values; noted with them: read-out: IC50 (μM) or percent inhibition (* indicates 3 minute incubation, otherwise 60 minute); IC50; 60 minute pre-incubation with compound; IMR32 cells, 80 mM KCl depolarization.
What is called IC50 is the concentration that inhibits the measured activity by half. For `CC(C)C(C(=O)N[C@H]1CC[C@@H]2CN(CCCc3cc(F)cc(Cl)c3)C[C@@H]21)c1ccccc1` (stereo partly drawn) [Example 114, N-{(3aR,4S,6aS)-2-[3-(3-chloro-5-fluorophenyl)propyl]octahydrocyclopenta[c]pyrrol-4-yl}-3-methyl-2-phenylbutanamide], the IC50 is 2.81 µM.
The same measure, in the same setting: the figure for `CC(C)C(C(=O)N[C@H]1CC[C@@H]2CN(CCC(c3ccccc3)c3ccccc3)C[C@@H]21)c1ccccc1` (stereo partly drawn) [Example 116, N-[(3aR,4S,6aS)-2-(3,3-diphenylpropyl)octahydrocyclopenta[c]pyrrol-4-yl]-3-methyl-2-phenylbutanamide] is 1.17 µM; for `CC(C)C(C(=O)N[C@H]1CC[C@@H]2CN(CCC(c3ccc(F)cc3)c3ccc(F)cc3)C[C@@H]21)c1ccccc1` (stereo partly drawn) [Example 117, N-{(3aR,4S,6aS)-2-[3,3-bis(4-fluorophenyl)propyl]octahydrocyclopenta[c]pyrrol-4-yl}-3-methyl-2-phenylbutanamide] it is 0.88 µM; for `CC(C)C(C(=O)N[C@H]1CC[C@@H]2CN(CCCC(c3ccc(F)cc3)c3ccc(F)cc3)C[C@@H]21)c1ccccc1` (stereo partly drawn) [Example 118, N-{(3aR,4S,6aS)-2-[4,4-bis(4-fluorophenyl)butyl]octahydrocyclopenta[c]pyrrol-4-yl}-3-methyl-2-phenylbutanamide] it is 1.04 µM.
With `CC(C)C(C(=O)N[C@H]1CC[C@@H]2CN(CCCCC(c3ccc(F)cc3)c3ccc(F)cc3)C[C@@H]21)c1ccccc1` (stereo partly drawn) [Example 119, N-{(3aR,4S,6aS)-2-[5,5-bis(4-fluorophenyl)pentyl]octahydrocyclopenta[c]pyrrol-4-yl}-3-methyl-2-phenylbutanamide], the IC50 was found to be 1.12 µM.
On to `O=C(N[C@H]1CC[C@H]2CN(C(c3ccccc3)c3ccccc3)C[C@H]21)C(C1CCCCC1)C1CCCCC1` [Example 120, N-[(3aS,4S,6aR)-2-benzhydryloctahydrocyclopenta[c]pyrrol-4-yl]-2,2-dicyclohexylacetamide], for which the IC50 turned out to be 3.44 µM.
Still for that read-out and setting: the figure for `O=C(N[C@@H]1CC[C@H]2CN(C(c3ccccc3)c3ccccc3)C[C@H]21)C(C1CCCCC1)C1CCCCC1` [Example 121, N-[(3aS,4R,6aR)-2-benzhydryloctahydrocyclopenta[c]pyrrol-4-yl]-2,2-dicyclohexylacetamide] is 14.3 µM.
On to `CC(C)C[C@@H](C(=O)N[C@@H]1CC[C@H]2CN(Cc3ccccc3)C[C@H]21)N(C)C(=O)OC(C)(C)C` [Example 151, N^1-[(3aS,4R,6aR)-2-benzyloctahydrocyclopenta[c]pyrrol-4-yl]-N^2-(tert-butyloxycarbonyl)-N^2-methyl-L-leucinamide], for which the IC50 turned out to be 0.71 µM.
The same measure, in the same setting: to `O=C(N[C@@H]1CC[C@H]2CN(Cc3cccc(C(F)(F)F)c3)C[C@H]21)C(O)(C1CCCCC1)C1CCCCC1` [Example 154, 2,2-dicyclohexyl-2-hydroxy-N-{(3aS,4R,6aR)-2-[3-(trifluoromethyl)benzyl]octahydrocyclopenta[c]pyrrol-4-yl}acetamide] belongs 1.33 µM.
For the compound `CC(C)C[C@@H](C(=O)N[C@@H]1CC[C@H]2CN(Cc3cccc(C(F)(F)F)c3)C[C@H]21)N(C)C(=O)OC(C)(C)C` [Example 155, N^2-(tert-butyloxycarbonyl)-N^2-methyl-N^1-{(3aS,4R,6aR)-2-[3-(trifluoromethyl)benzyl]octahydrocyclopenta[c]pyrrol-4-yl}-L-leucinamide], the IC50 came out at 0.69 µM.
`CN[C@@H](CC(C)C)C(=O)N[C@H]1CC[C@H]2CN(Cc3cccc(C(F)(F)F)c3)C[C@H]21` [Example 164, N^2-methyl-N^1-{(3aS,4S,6aR)-2-[3-(trifluoromethyl)benzyl]octahydrocyclopenta[c]pyrrol-4-yl}-L-leucinamide]: the IC50 amounted to 1.64 µM.
Consider `CN[C@@H](CC(C)C)C(=O)N[C@@H]1CC[C@H]2CN(Cc3ccccc3)C[C@H]21` [Example 165, N^1-[(3aS,4R,6aR)-2-benzyloctahydrocyclopenta[c]pyrrol-4-yl]-N^2-methyl-L-leucinamide], for which the IC50 was above 30 µM.
`CN[C@@H](CC(C)C)C(=O)N[C@@H]1CC[C@H]2CN(Cc3cccc(C(F)(F)F)c3)C[C@H]21` [Example 166, N^2-methyl-N^1-{(3aS,4R,6aR)-2-[3-(trifluoromethyl)benzyl]octahydrocyclopenta[c]pyrrol-4-yl}-L-leucinamide]: the IC50 worked out at 2.72 µM.
The same measure, in the same setting: the figure for `CC(C)C[C@@H](C(=O)N[C@H]1CC[C@H]2CN(Cc3cccc(C(F)(F)F)c3)C[C@H]21)N(C)S(C)(=O)=O` [Example 167, N^2-methyl-N^2-(methylsulfonyl)-N^1-{(3aS,4S,6aR)-2-[3-(trifluoromethyl)benzyl]octahydrocyclopenta[c]pyrrol-4-yl}-L-leucinamide] is 1.21 µM; for `CC(C)C[C@@H](C(=O)N[C@@H]1CC[C@H]2CN(Cc3ccccc3)C[C@H]21)N(C)S(C)(=O)=O` [Example 168, N^1-[(3aS,4R,6aR)-2-benzyloctahydrocyclopenta[c]pyrrol-4-yl]-N^2-methyl-N^2-(methylsulfonyl)-L-leucinamide] it is 12.9 µM; for `CC(C)C[C@@H](C(=O)N[C@@H]1CC[C@H]2CN(Cc3cccc(C(F)(F)F)c3)C[C@H]21)N(C)S(C)(=O)=O` [Example 169, N^2-methyl-N^2-(methylsulfonyl)-N^1-{(3aS,4R,6aR)-2-[3-(trifluoromethyl)benzyl]octahydrocyclopenta[c]pyrrol-4-yl}-L-leucinamide] it is 0.92 µM.
On the same count and under the same terms, to `CC(C)C[C@H](NS(C)(=O)=O)C(=O)N[C@@H]1CC[C@H]2CN(Cc3cccc(C(F)(F)F)c3)C[C@H]21` [Example 170, N^2-(methylsulfonyl)-N^1-{(3aS,4R,6aR)-2-[3-(trifluoromethyl)benzyl]octahydrocyclopenta[c]pyrrol-4-yl}-L-leucinamide] belongs 4.55 µM.
The same measure, in the same setting: to `CC(C)C[C@@H](NS(C)(=O)=O)C(=O)N[C@@H]1CC[C@H]2CN(Cc3cccc(C(F)(F)F)c3)C[C@H]21` [Example 171, N^2-(methylsulfonyl)-N^1-{(3aS,4R,6aR)-2-[3-(trifluoromethyl)benzyl]octahydrocyclopenta[c]pyrrol-4-yl}-D-leucinamide] belongs 6.16 µM; to `CC(C)C[C@H](NS(=O)(=O)C1CC1)C(=O)N[C@@H]1CC[C@H]2CN(Cc3cccc(C(F)(F)F)c3)C[C@H]21` [Example 172, N^2-(cyclopropylsulfonyl)-N^1-{(3aS,4R,6aR)-2-[3-(trifluoromethyl)benzyl]octahydrocyclopenta[c]pyrrol-4-yl}-L-leucinamide], 2.03 µM.
